The nature of data set [1]: ORAC(fl) assay (fluorescein, method of Ou et al.). It is filed as biochemical. To be noted: mixed at different ratios with quercetin; standard acetone:water solution. The protocol: Prior Art Method of Measuring Antioxidant Activity for Comparison. For the ORAC(fl) assay, the method of Ou et al. (Ou , B., Hampsch-Woodill, M. and Prior, R.L., J. Agric. Food Chem. 2001, 49, 4619-4626) was followed. Differences from the Ou procedure as published included the speed of the orbital shaker (Ou, 400 rpm; herein, 280 rpm), and the centrifuge speed (Ou, 14,000 rpm, 15 min; herein, 3200 rpm, 15 min and the length of the assay (Ou, 30 min; herein, 100 min). Fluorescein, sodium salt, was obtained from Aldrich (Milwaukee, WI). For the Ou method, a standard amount of fluorescein is added to an antioxidant product being tested, and the beginning level of fluorescence is measured. A free radical initiator is added, and the time and degree of disappearance of fluorescence are measured. Trolox®, 6-Hydroxy-2,5,7,8-tetramethylchroman-2-carboxylic Acid, is a cell-permeable, water-soluble derivative of vitamin E with potent antioxidant properties. Trolox® prevents peroxynitrite-mediated oxidative stress and apoptosis in rat thymocytes and is a synthetic antioxidant that is consistent from lot-to-lot and is used as the standard and run for comparison with each sample. A blank (control) used in calculations of the ORAC(o) value for each samples may be included in each run. Fluorescence vs. time is plotted. The blank (control) is subtracted from every curve. […]

For data set [2] the following is noted: 37 °C at neutral pH; cited from earlier work.
Data set [3] in a line: ORAC(o) assay: oxygen radical absorbance capacity by dissolved oxygen. The class given is biochemical. The arrangement: unit not given here. The following applies: quercetin sample at 10µg/mL. The procedure:
Method of Measuring Antioxidant Activity. In operation, the ORAC(o) assay of the present invention was used to evaluate antioxidant compositions, combinations and the like of solutions against a target molecule (linoleic acid) with oxygen present at equilibrium with the air. A free radical initiator is added and the time it takes for oxygen to disappear is measured, yielding the rate of disappearance. Trolox® is used as the standard, and a blank is run as a control. Amount of dissolved oxygen vs. time is plotted allowing direct comparison of net areas under the curve. A detailed method is as follows: Buffers (K2HPO4 (F.W. 174.2), NaH2PO4 (FW 120.0)) were obtained from Sigma (St. Louis, MO). […] HPLC grade acetone was obtained from Fisher (Hampton, NH). A YSI […] biological oxygen meter was obtained from YSI (Yellow Springs, Ohio) and used according to the manufacturer's specifications. ORAC(o) Method. The following stock solutions were used. […] Weigh 65.33g into 500mL of volumetric flask, and add dH20 to the mark. Concentration is 750 mM. Store 750 mM K2HPO4 stock solution in a refrigerator (2 to 8°C) equipped with a calibrated thermometer. Target temperature is 4°C. 750mM NaH2PO4 (FW 120.0); Weigh 45.00 g into 500 mL of volumetric flask, and add dH20 to the mark. […] Keep covered at room temperature until ready to use. […]

Values joined by “and” are separate entries in the source; they are usually repeats but may differ in a detail not shown here. Identical values can stand only once. “Also recorded” adds a separate entry of the source.

Regarding `Cc1c(C)c2c(c(C)c1O)CC[C@@](C)(CCC[C@H](C)CCC[C@H](C)CCCC(C)C)O2` [α-tocopherol], the “contribution of α-tocopherol to AO activity” value in data set [1] was “no contribution to AO activity; also recorded: no statistically significant activity”.

As to `CC(C)(N=NC(C)(C)C(=N)N)C(=N)N.Cl.Cl` [AAPH, 2,2' azobis (2-amidinopropane) dihydrochloride], in data set [2], the half life entry is recorded as “about 175 hours”.

For the molecule `O=c1c(O)c(-c2ccc(O)c(O)c2)oc2cc(O)cc(O)c12` [quercetin], the “Area Under Curve (AUC)” value in data set [3] (each day an average of 3 runs, 5 day precision trial) was 202.7 and 212.9 and 187 and 202.9 and 213.1. The Area under curve in data set [3] (single runs of single day precision trial) was 207.4 and 198.2 and 205 and 201.6 and 202.1.

Values taken from patent EP1858489B1, “METHODS AND COMPOSITIONS FOR MODIFIED RELEASE OF NUTRITIONAL SUPPLEMENTS” (Mannatech, Inc., priority 2005, dated 2006).
